# Read-outs that look alike come from different tables or passages of the source.
# Tested on: HL-60 cells
# Experiment: Anti-proliferative effect on HL-60 cells (Coulter Counter enumeration)
# Type: cell-based, human (patient)
# Details: for inhibition at 0.015 µM / inhibition at 0.045 µM / inhibition at 0.09 µM: Homo sapiens, read-out: percent reduction of cell numbers relative to control
# Protocol: Cultures of HL-60 cells were established in the absence (control) or presence of various concentrations of the test compound. After a 4-day incubation period, the cultures were evaluated for proliferation of tumor cells, tumor cell viability, and cellular differentiation. Proliferation was assessed by directly enumerating the increased number of tumor cells resulting from incubation. Viability was determined by dye exclusion technique to learn whether any of the compounds were lethal to cultured HL-60 cells. Cellular differentiation was evaluated by determining the number of cells which had acquired the enzymes necessary to support a respiratory burst and the functional ability to phagocytose (bind/internalize) particulate material from their environment; both activities being characteristic of mature macrophages and granulocytes,
# Tissure culture medium used in these experiments was RPM1-1640 supplemented prior to use to 10% v/v with fetal bovine serum (heat inactivated at 56° for 30 minutes), to 130 units per ml with penicillin and 130 μg per ml with streptomycin, and to an additional 1.6 millimolar with L-glutamine.
# Experimental compounds were dissolved in sufficient ethanol to yield stock solutions of 1×10^-2 molar. Reduced lighting was employed when working with compounds and stock solutions were stored in the dark at -20° in an argon atmosphere. Compounds were diluted with tissue culture medium and added to flasks containing HL-60 cells to achieve the final concentrations described in each experiment.
# The promyelocytic (HL-60) tumor cell line was derived from a patient with acute promyelocytic leukemia. HL-60 cells were maintained in liquid culture by serial weekly passage in tissue culture medium. In any experiment, three replicate flasks were incubated without compound (control) or in the presence of varying concentrations of compound. […]
# Quantitation of proliferation was done by enumerating the number of HL-60 cells in each individual flasks (3 flasks per experimental point) using a model ZBI Coulter Counter. Results are shown as the number of cells per ml of tissue culture medium expressed as the mean±standard deviation and as percent reduction of cell number calculated according to the formula: [formula] Experimental cultures with the same or slightly greater cell numbers than control cultures are reported as zero percent reduction.
smiles,measurement,setting,value
"C=C(C)[C@H](O)CC[C@@H](C)[C@H]1CC[C@H]2/C(=C/C=C3/C[C@@H](O)C[C@H](O)C3=C)CCC[C@]12C [25,26-dehydro-1α,24R-dihydroxycholecalciferol]",inhibition of proliferation of HL-60 cells,,"inhibited by 25,26-dehydro-1α,24R-dihydroxycholecalciferol in a dose-dependent fashion"
same,HL-60 Cells per ml,"15 × 10^-9 molar (first line of that concentration), day 3",12.0 ± 0.2 cells per ml (× 10^-4)
same,HL-60 Cells per ml,"15 × 10^-9 molar (first line of that concentration), day 4",24.1 ± 1.0 cells per ml (× 10^-4)
same,HL-60 Cells per ml,"15 × 10^-9 molar (first line of that concentration), day 6",113.0 ± 1.4 cells per ml (× 10^-4)
same,HL-60 Cells per ml,"15 × 10^-9 molar (second line), day 3",12.0 ± 0.5 cells per ml (× 10^-4)
same,HL-60 Cells per ml,"15 × 10^-9 molar (second line), day 4",22.0 ± 0.4 cells per ml (× 10^-4)
same,HL-60 Cells per ml,"15 × 10^-9 molar (second line), day 6",71.4 ± 1.3 cells per ml (× 10^-4)
same,HL-60 Cells per ml,"45 × 10^-9 molar, day 3",12.3 ± 0.2 cells per ml (× 10^-4)
same,HL-60 Cells per ml,"45 × 10^-9 molar, day 4",19.0 ± 0.8 cells per ml (× 10^-4)
same,HL-60 Cells per ml,"45 × 10^-9 molar, day 6",31.4 ± 0.5 cells per ml (× 10^-4)
same,HL-60 Cells per ml,"90 × 10^-9 molar, day 3",11.8 ± 0.1 cells per ml (× 10^-4)
same,HL-60 Cells per ml,"90 × 10^-9 molar, day 4",15.4 ± 0.9 cells per ml (× 10^-4)
same,HL-60 Cells per ml,"90 × 10^-9 molar, day 6",21.4 ± 1.1 cells per ml (× 10^-4)
same,inhibition at 0.015 µM,"HL-60, 72 h, 15 × 10^-9 molar (first line of that concentration), day 3",0%
same,inhibition at 0.015 µM,"HL-60, 72 h, 15 × 10^-9 molar (second line), day 3",0%
same,inhibition at 0.045 µM,"HL-60, 72 h, 45 × 10^-9 molar, day 3",0%
same,inhibition at 0.09 µM,"HL-60, 72 h, 90 × 10^-9 molar, day 3",0%
same,inhibition at 0.015 µM,"HL-60, 96 h, 15 × 10^-9 molar (first line of that concentration), day 4",9%
same,inhibition at 0.015 µM,"HL-60, 96 h, 15 × 10^-9 molar (second line), day 4",17%
same,inhibition at 0.045 µM,"HL-60, 96 h, 45 × 10^-9 molar, day 4",28%
same,inhibition at 0.09 µM,"HL-60, 96 h, 90 × 10^-9 molar, day 4",42%
same,inhibition at 0.015 µM,"HL-60, 144 h, 15 × 10^-9 molar (first line of that concentration), day 6",11%
same,inhibition at 0.015 µM,"HL-60, 144 h, 15 × 10^-9 molar (second line), day 6",44%
same,inhibition at 0.045 µM,"HL-60, 144 h, 45 × 10^-9 molar, day 6",75%
same,inhibition at 0.09 µM,"HL-60, 144 h, 90 × 10^-9 molar, day 6",83%
same,inhibition of proliferation detectable by cell enumeration as early as,day of incubation,4 days

# — patent publication US4594340A, “25,26-dehydro-1α,24R-dihydroxycholecalciferol and 25,26-dehydro-1α,24S-dihydroxycholecalciferol and the epimeric mixture” (Hoffmann-La Roche Inc., priority 1984, dated 1986)
